Results reported in ChEMBL document CHEMBL5223099, “Covalent cannabinoid receptor ligands - structural insight and selectivity challenges” (RSC Med Chem, 2022).
Values belong to the compound of their own block, whether it stands above or below them.

What was measured:
[1] = molecular target: Cannabinoid receptor 1 (Rattus norvegicus, UniProt P20272); assay: Antagonist activity at rat CB1R expressed in CHO cells assessed as inhibition of forskolin stimulated cyclic AMP production; assay type: cell-based
[2] = molecular target: T1, Cannabinoid receptor 1 (Homo sapiens, UniProt P21554); assay: Binding affinity to CB1R (unknown origin) assessed as inhibition constant; conditions: filed as antagonist
[3] = molecular target: T2, Cannabinoid receptor 2 (Homo sapiens, UniProt P34972); assay: Antagonist activity at human CB2R assessed as beta arrestin-2 recruitment by measuring inhibition constant
[4] = molecular target: T1, Cannabinoid receptor 1; assay: Antagonist activity at human CB1R assessed as beta arrestin-2 recruitment by measuring inhibition constant
[5] = molecular target: T2, Cannabinoid receptor 2; assay: Binding affinity to wild type human CB2R expressed in HEK293 cells assessed as inhibition constant; assay type: cell-based
[6] = molecular target: T1, Cannabinoid receptor 1; assay: Displacement of [3H]- CP55940 from human CB1R expressed in HEK293F cells assessed as inhibition constant incubated for 1 hr by scintillation counter analysis; assay type: cell-based; conditions: filed as antagonist

T1 sequence (P21554 whole entry): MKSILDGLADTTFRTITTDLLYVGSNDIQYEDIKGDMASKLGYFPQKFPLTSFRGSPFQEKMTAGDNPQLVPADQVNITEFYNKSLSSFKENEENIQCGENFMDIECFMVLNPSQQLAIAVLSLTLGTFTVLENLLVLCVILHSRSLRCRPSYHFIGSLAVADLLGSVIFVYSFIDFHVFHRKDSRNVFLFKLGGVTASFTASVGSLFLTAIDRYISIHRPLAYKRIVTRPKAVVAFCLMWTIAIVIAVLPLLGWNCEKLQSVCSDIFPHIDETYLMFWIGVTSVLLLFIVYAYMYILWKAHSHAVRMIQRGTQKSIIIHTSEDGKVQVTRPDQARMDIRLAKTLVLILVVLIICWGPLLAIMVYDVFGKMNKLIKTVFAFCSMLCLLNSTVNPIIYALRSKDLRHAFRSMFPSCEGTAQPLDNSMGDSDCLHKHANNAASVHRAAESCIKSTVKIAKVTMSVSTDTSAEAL
T2 sequence (P34972 whole entry): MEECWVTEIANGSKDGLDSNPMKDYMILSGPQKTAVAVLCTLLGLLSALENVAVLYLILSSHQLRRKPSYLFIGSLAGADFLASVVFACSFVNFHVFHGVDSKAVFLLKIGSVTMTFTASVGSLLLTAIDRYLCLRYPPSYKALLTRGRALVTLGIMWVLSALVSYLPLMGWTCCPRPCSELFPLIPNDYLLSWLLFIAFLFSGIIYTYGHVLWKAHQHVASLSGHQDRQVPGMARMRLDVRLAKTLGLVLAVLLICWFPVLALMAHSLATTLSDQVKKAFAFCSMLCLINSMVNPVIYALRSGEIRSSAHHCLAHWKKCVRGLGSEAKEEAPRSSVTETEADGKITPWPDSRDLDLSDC
Chain of Cannabinoid receptor 1 (Rattus norvegicus, UniProt P20272) (P20272 whole entry): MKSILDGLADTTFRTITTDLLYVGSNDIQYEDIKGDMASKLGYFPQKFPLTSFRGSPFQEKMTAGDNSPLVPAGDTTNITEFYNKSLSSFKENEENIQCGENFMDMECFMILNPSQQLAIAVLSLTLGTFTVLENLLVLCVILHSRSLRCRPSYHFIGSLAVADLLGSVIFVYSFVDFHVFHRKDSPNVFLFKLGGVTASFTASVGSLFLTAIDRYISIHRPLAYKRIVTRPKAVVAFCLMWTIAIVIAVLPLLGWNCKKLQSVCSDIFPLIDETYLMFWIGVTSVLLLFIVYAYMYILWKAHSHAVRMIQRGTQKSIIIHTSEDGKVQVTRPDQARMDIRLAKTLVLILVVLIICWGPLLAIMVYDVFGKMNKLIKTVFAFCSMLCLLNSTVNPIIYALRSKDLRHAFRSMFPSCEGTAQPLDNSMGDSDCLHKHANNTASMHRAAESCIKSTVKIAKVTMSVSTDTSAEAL

Compound: CCCCCCC(C)(C)c1cc(OC)c([C@H]2C=C(CO)[C@H]3C[C@@H]2C3(C)C)c(OC)c1
Ki [1]: > 10000 nM

K [2]: 5.76 nM
Compound: Cc1c(C(=O)NC23CC4CC(CC(C4)C2)C3)nn(CCCCSC#N)c1-c1ccccc1

Compound: Cc1c(C(=O)NC23CC4CC(CC(C4)C2)C3)nn(CCCCCO)c1-c1ccccc1
Ki [3]: 0.075 nM
Ki [4]: 13 nM

Compound: CCCCCn1nc(C(=O)NC23CC4CC(CC(C4)C2)C3)c(C)c1-c1ccccc1
Ki [5]: 0.63 nM

K [6]: 5.1 nM
Compound: Cc1c(C(=O)NN2CCCCC2)nn(-c2ccc(Cl)cc2Cl)c1-c1ccc(C#CCCO[N+](=O)[O-])cc1
